Test [1] concerns extracellular signal-regulated kinase (ERK). The conditions noted are these: preclinical studies; cited from earlier work.
The test system of test [2] is A549 (human lung carcinoma) cells. As to the kind of experiment: Cell viability assay (CellTiter-Glo), A549. The format is cell-based. The settings on record: 72 h. Put shortly: (§1)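 Cells grown in RPMI 1640 with 10% FBS were seeded at 1.67E+04 cells/mL and left overnight at 37° C., 5% CO2. They were then exposed to serially diluted compound for 72 h, after which CellTiter-Glo luminescence was read, normalized to DMSO, and fitted to a 4-parameter logistic model for IC50.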

Test [3] concerns MIA PaCa-2 (human pancreatic carcinoma) cells. As to the kind of experiment: Cell viability assay (CellTiter-Glo), MIA PaCa-2. The format is cell-based. The conditions noted are these: 72 h. Summed up: as §1
For orientation: ATP-based viability assays read luminescence as a measure of living cells.

The target of test [4] is GDP-bound KRAS protein (aa 1-169), containing both G12C and C118A amino acid substitutions (Homo sapiens, UniProt P01116, C118A/G12C). As to the kind of experiment: Coupled nucleotide exchange assay (SOS-mediated, AlphaScreen). The test is classed as biochemical. On the procedure: Coupled Nucleotide Exchange Assay:
For all subsequent steps, DTT was added to the reaction buffer at a final concentration of 1 mM. […] The assay plates were then read on a plate reader measuring luminescence signal. Signal intensity of compound-containing wells were normalized to DMSO control, and data were analyzed using a 4-parameter logistic model to calculate IC50 values.
Background: Alpha assays give light when donor and acceptor beads are brought close together.

[5] abbreviates: 2 h compound pre-incubation, read-out: Avg 2 h Coupled exchange IC50.

Where two headings read alike, the source gives them in different places.

By IC50 is commonly meant the concentration needed to halve the response being measured.

Sequence of GDP-bound KRAS protein (aa 1-169), containing both G12C and C118A amino acid substitutions (P01116 1-169 isoform P01116-2 G12C/C118A): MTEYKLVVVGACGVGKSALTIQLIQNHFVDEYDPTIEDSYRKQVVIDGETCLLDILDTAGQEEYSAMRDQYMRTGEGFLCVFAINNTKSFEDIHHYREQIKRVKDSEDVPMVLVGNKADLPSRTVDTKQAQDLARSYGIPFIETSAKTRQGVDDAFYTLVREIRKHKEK

As to `C=CC(=O)N1CCN(c2nc(=O)n(-c3c(C)ccnc3C(C)C)c3nc(-c4c(O)cccc4F)c(F)cc23)[C@@H](C)C1` [AMG 510], in test [1], the “inhibition of ERK phosphorylation” value is on record as “inhibited nearly all detectable phosphorylation”.

With `C=CC(=O)N1CC2(CCN(c3nc(N[C@H](CC(=O)NC)CC(C)C)c4ccc(-c5nccs5)cc4n3)C2)C1` [Example 1-59, (3S)-N,5-dimethyl-3-((2-(2-(2-propenoyl)-2,6-diazaspiro[3.4]octan-6-yl)-7-(1,3-thiazol-2-yl)-4-quinazolinyl)amino)hexanamide], the IC50 in test [2] was found to be 7860 nM; in test [3], 16 nM; in test [4] (setting [5]) it was 10 nM.

`C=CC(=O)N1CC2(CCN(c3nc4c(c(N[C@H](Cc5ncc[nH]5)CC(C)C)n3)CCC(C)(C)C4)C2)C1` [Example 1-54, 1-(6-(4-(((2S)-1-(1H-imidazol-2-yl)-4-methyl-2-pentanyl)amino)-7,7-dimethyl-5,6,7,8-tetrahydro-2-quinazolinyl)-2,6-diazaspiro[3.4]octan-2-yl)-2-propen-1-one]: the half-maximal inhibitory concentration (IC50) in test [2] was above 5000 nM; in test [3], 1320 nM; in test [4] (setting [5]), 49 nM.

As for `C=CC(=O)N1CC2(CCN(c3nc(N[C@H](CC(=O)NC)CC(C)C)c4ccc(C(C)C)cc4n3)C2)C1` [Example 1-20, (3S)-N,5-dimethyl-3-((7-(2-propanyl)-2-(2-(2-propenoyl)-2,6-diazaspiro[3.4]octan-6-yl)-4-quinazolinyl)amino)hexanamide], the IC50 was 21600 nM in test [2], 75 nM in test [3] and 84 nM in test [4] (setting [5]).

For the molecule `C=CC(=O)N1CC2(CCN(c3nc(N[C@H](CC(=O)NC)CC(C)C)c4ccn(C)c4n3)C2)C1` [Example 1-16, (3S)-N,5-dimethyl-3-((7-methyl-2-(2-(2-propenoyl)-2,6-diazaspiro[3.4]octan-6-yl)-7H-pyrrolo[2,3-d]pyrimidin-4-yl)amino)hexanamide], the IC50 was above 25000 nM in test [2]; 4600 nM in test [3]; 918 nM in test [4] (20 h compound pre-incubation (values marked * in Table 6), read-out: Avg 20 h Coupled exchange IC50).
